Results from the RepoRT retention time repository (doi:10.1016/j.jhazmat.2019.121712).

Assay: Thermo Scientific Acclaim RSLC 120 C18, 100 × 2.1 mm, 2.2 µm, 30 °C; A: 90% water + 10% methanol + 0.01% formic acid + 5 mM ammonium formate; B: methanol + 0.01% formic acid + 5 mM ammonium formate; gradient (min/%B) 0.1/1 3/39 14/99.9 16/99.9
Conditions: stereoisomer not certain
NN1CC(=O)N2C(Cc3c([nH]c4ccccc34)C2c2ccc3c(c2)OCO3)C1=O (centres undefined) gave an LC retention time of 7.84 min.
For CCOP(=S)(OCC)SCSCC, the LC retention time was 11.4 min.
Molecule CC=CC(=O)Oc1c(C(C)CCCCCC)cc([N+](=O)[O-])cc1[N+](=O)[O-] (centres undefined) has an LC retention time of 13.1 min.
Work on CCOC(=O)C(c1ccccc1)C1CCCCN1 (centres undefined) yielded an LC retention time of 5.08 min.
In the case of CC(C(=O)c1ccccc1)N(C)C (centres undefined), the LC retention time is reported as 3.64 min.
Molecule CNc1nc(C)c(C)c(OC(=O)N(C)C)n1 has an LC retention time of 5.89 min.
Work on CC1(C)C(C(=O)OC(C#N)c2cccc(Oc3ccccc3)c2)C1(C)C (centres undefined) yielded an LC retention time of 12.9 min.
NC(=O)N1c2ccccc2C=Cc2ccccc21 gave an LC retention time of 7.36 min.
With CCCC(C(=O)OCCN(CC)CC)(c1ccccc1)c1ccccc1 the LC retention time was 9.41 min.
With O=C(O)CCCO the LC retention time was 1.95 min.
In the case of CCCc1cc(OC)c(CCN)cc1OC, the LC retention time is reported as 7.46 min.
Work on CCNc1nc(NC(C)C)[nH]c(=O)n1 yielded an LC retention time of 5.03 min.
Work on CC(C)(C)NCC(O)COc1cccc2c1CCCC2=O (centres undefined) yielded an LC retention time of 4.84 min.
With CCOP(=S)(OCC)SCCSCC the LC retention time was 11.5 min.
Work on CN(C)c1ccc(C(c2ccccc2)c2ccc(N(C)C)cc2)cc1 yielded an LC retention time of 13.7 min.
Molecule CN1CCCCC1Cn1cc(C(=O)c2cccc3ccccc23)c2ccccc21 (centres undefined) has an LC retention time of 8.09 min.
With CC(N)C12CC3CC(CC(C3)C1)C2 (centres undefined) the LC retention time was 6.71 min.
CC12CCC(=O)C=C1CCC1C2CCC2(C)C(C(=O)CO)CCC12 (centres undefined) showed an LC retention time of 13.7 min.
In the case of CNC(C)CC1CCCCC1 (centres undefined), the LC retention time is reported as 5.74 min.
With COc1ccc(-c2oc3c(CC=C(C)C)c(OC4OC(CO)C(O)C(O)C4O)cc(O)c3c(=O)c2OC2OC(C)C(O)C(O)C2O)cc1 (centres undefined) the LC retention time was 8.24 min.
OCC(O)CN1CCN(c2ccccc2)CC1 (centres undefined) showed an LC retention time of 3.79 min.
Work on O=C(O)c1ccccc1C(=O)Nc1ccc(S(=O)(=O)Nc2nccs2)cc1 yielded an LC retention time of 4.66 min.
In the case of COC(=O)C(NC(=O)c1cn(CC2CCCCC2)c2ccccc12)C(C)(C)C (centres undefined), the LC retention time is reported as 12.4 min.
Molecule CCCc1cc(C(N)=S)ccn1 has an LC retention time of 6.36 min.
COc1cc(OC)nc(NC(=O)NS(=O)(=O)N(C)S(C)(=O)=O)n1 gave an LC retention time of 6.77 min.
CCOC(=O)C1(c2ccccc2)CCC=CC1N(C)C (centres undefined) gave an LC retention time of 5.1 min.
Work on OC(CCN1CCCC1)(c1ccccc1)C1CCCCC1 (centres undefined) yielded an LC retention time of 7.8 min.
For CCOC(=O)C(CCc1ccccc1)NC(C)C(=O)N1C(C(=O)O)CC2CCCCC21 (centres undefined), the LC retention time was 9.55 min.
For C=CCN(CC=C)CCc1c[nH]c2ccc(OC)cc12, the LC retention time was 4.89 min.
Molecule CCC(CN(C)C)(CN(C)C)OC(=O)c1ccccc1 has an LC retention time of 6.07 min.
For COC(=O)NS(=O)(=O)c1ccc(N)cc1, the LC retention time was 3.41 min.
For NC(CO)C(=O)NNCc1ccc(O)c(O)c1O (centres undefined), the LC retention time was 1.38 min.
For CC(C)(C)NCC(O)COc1cccc2c1SCCC2 (centres undefined), the LC retention time was 6.76 min.
CC(C(O)c1ccccc1)N(C)C (centres undefined) gave an LC retention time of 3.73 min.
Molecule N#CSCSc1nc2ccccc2s1 has an LC retention time of 9.25 min.
CCCCOCCOCCSC#N gave an LC retention time of 8.12 min.
Molecule COc1ccc(CCN(C)CCCC(C#N)(c2ccc(OC)c(OC)c2)C(C)C)cc1OC (centres undefined) has an LC retention time of 7.03 min.
With CCCC(NC)C(=O)c1ccc2c(c1)OCO2 (centres undefined) the LC retention time was 4.99 min.
Work on CNCCCC1c2ccccc2C=Cc2ccccc21 yielded an LC retention time of 7.99 min.
CCCc1ccc(C(=O)c2cn(CCC)c3ccccc23)c2ccccc12 showed an LC retention time of 12.7 min.
CN1C2CCC1CC(OC(=O)c1c[nH]c3ccccc13)C2 (centres undefined) gave an LC retention time of 5.09 min.
Work on CCOP(=O)(OCC)OP(=O)(OCC)OCC yielded an LC retention time of 6.49 min.
Work on CNC(C)C(O)c1ccccc1 (centres undefined) yielded an LC retention time of 3.76 min.
Work on CCCCCn1c(O)c(C(=O)c2cccc3ccccc23)c2ccccc21 yielded an LC retention time of 14 min.
Molecule CC12CCC(=O)C=C1C=CC1C2CCC2(C)C1CCC21CCC(=O)O1 (centres undefined) has an LC retention time of 9.77 min.
Work on CNC(=O)ON=CC(C)(C)SC yielded an LC retention time of 6.17 min.
In the case of COc1cc(SC(C)C)c(OC)cc1CCN, the LC retention time is reported as 6.69 min.
Work on Nc1ccc(S(=O)(=O)Nc2ccccn2)cc1 yielded an LC retention time of 3.8 min.
With CC(C)NCC(O)COc1ccc(COCCOC(C)C)cc1 (centres undefined) the LC retention time was 5.91 min.
In the case of CN1CCC23c4c5ccc(OC6OC(C(=O)O)C(O)C(O)C6O)c4OC2C(O)C=CC3C1C5 (centres undefined), the LC retention time is reported as 1.63 min.
Work on COC(=O)C1C2CCC(CC1OC(=O)c1ccccc1)N2 (centres undefined) yielded an LC retention time of 5.15 min.
Molecule CCCN1CC(NS(=O)(=O)N(CC)CC)CC2Cc3c(O)cccc3CC21 (centres undefined) has an LC retention time of 5.24 min.
Nc1nc(=S)c2[nH]cnc2[nH]1 showed an LC retention time of 2.53 min.
In the case of COC1C(OC(N)=O)C(O)C(Oc2ccc3c(O)c(NC(=O)c4ccc(O)c(CC=C(C)C)c4)c(=O)oc3c2C)OC1(C)C (centres undefined), the LC retention time is reported as 11.2 min.
Work on CC(=O)Nc1nnc(S(N)(=O)=O)s1 yielded an LC retention time of 3.43 min.
For CC(CCc1ccc(O)cc1)NCC(O)c1ccc(O)cc1 (centres undefined), the LC retention time was 4.39 min.
In the case of Oc1ccc2c3c1OC1C(O)C=CC4C(C2)NCCC341 (centres undefined), the LC retention time is reported as 2.71 min.
Cc1cccc2sc3nncn3c12 gave an LC retention time of 5.93 min.
Molecule Cc1c(NC(C)C)c(=O)n(-c2ccccc2)n1C has an LC retention time of 5.72 min.
CC(C)(C(=O)c1cccnc1)c1cccnc1 gave an LC retention time of 6.21 min.
Molecule CC(C)C1(C)N=C(c2ncccc2C(=O)O)NC1=O (centres undefined) has an LC retention time of 4.1 min.
Work on CN1CCN2c3ccccc3Cc3ccccc3C2C1 (centres undefined) yielded an LC retention time of 6.94 min.
For COc1cccc(N(C)C(=S)Oc2cccc(C(C)(C)C)c2)n1, the LC retention time was 12.5 min.
Molecule C1=CCC(c2cccnc2)NC1 (centres undefined) has an LC retention time of 2.68 min.
Molecule COc1ccc(CCNCCCC(C#N)(c2ccc(OC)c(OC)c2)C(C)C)cc1OC (centres undefined) has an LC retention time of 6.96 min.
Work on CN(C)CCOC(=O)C(c1ccccc1)C1(O)CCCC1 (centres undefined) yielded an LC retention time of 6.16 min.
For COc1ccccc1CC(=O)c1cn(CCC2CCCCC2)c2ccccc12, the LC retention time was 13 min.
COC(=O)C(c1ccccc1)C1CCCCN1 (centres undefined) gave an LC retention time of 4.96 min.
For CCOc1c(N)c2c(c(OCC)c1OCC)C(C1c3c(cc4c(c3OC)OCO4)CCN1C)OC2=O (centres undefined), the LC retention time was 12 min.
Work on CCNC1CC(C)S(=O)(=O)c2sc(S(N)(=O)=O)cc21 (centres undefined) yielded an LC retention time of 3.19 min.
Work on CCC(C(=O)c1ccc2c(c1)OCO2)N(C)C (centres undefined) yielded an LC retention time of 4.38 min.
Molecule NC(=O)N1c2ccccc2CC(=O)c2ccccc21 has an LC retention time of 6.46 min.
In the case of COc1ccc2c3c1OC1CC(O)C=CC31CCN(C)C2 (centres undefined), the LC retention time is reported as 2.99 min.
Work on CC(O)CN1CCN(CC(=O)O)CCN(CC(=O)O)CCN(CC(=O)O)CC1 (centres undefined) yielded an LC retention time of 1.31 min.
In the case of NC(=O)c1ccccc1Oc1ccccc1, the LC retention time is reported as 7.79 min.
Molecule CCCCc1ncc(C=C(Cc2cccs2)C(=O)O)n1Cc1ccc(C(=O)O)cc1 has an LC retention time of 7.49 min.
In the case of CCCC(NC(C)C(=O)N1C(C(=O)O)CC2CCCCC21)C(=O)OCC (centres undefined), the LC retention time is reported as 13.2 min.
CCCC(C)(COC(N)=O)COC(=O)NC(C)C (centres undefined) gave an LC retention time of 7.99 min.
In the case of CCOC(=O)C1=NOC(c2ccccc2)(c2ccccc2)C1, the LC retention time is reported as 10.7 min.
Molecule CC(C)C(NC(=O)c1nn(CC2CCCCC2)c2ccccc12)C(N)=O (centres undefined) has an LC retention time of 11.3 min.
Molecule CCNC(=O)C(C)OC(=O)Nc1ccccc1 (centres undefined) has an LC retention time of 6.58 min.
CCN(CC)CCCN(c1ccccc1)C1Cc2ccccc2C1 showed an LC retention time of 8.85 min.
O=C1N=CCC=N1 gave an LC retention time of 4.49 min.
In the case of Cc1cc(C)nc(NC(=O)NS(=O)(=O)c2ccccc2C(=O)OC2COC2)n1, the LC retention time is reported as 6.52 min.
